Assay results from PubChem BioAssay AID1963852 (Molecular Pharmacology Branch, DTP, NCI, 2024).

System: 282377-053-R-J1-PDC complex spheroid viability
Test: Anticancer human tumor 282377-053-R-J1-PDC patient-derived colon adenocarcinoma cell line growth inhibition [POLQ]
Settings: for IC50: curve of first compound; for viability, T/C: stronger effect = lower value
Method in brief: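 Growth inhibition in 3D: complex spheroids (tumor PDC, HUVEC, MSC) treated with POLQ inhibitor combinations; where Cmax unknown, highest tested concentration 10 microM, except SN-38 at 1 microM.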

[1] = second compound 0.0316 µM, first compound 0.0316 µM
[2] = second compound 0.0316 µM, first compound 0.1 µM
[3] = second compound 0.0316 µM, first compound 0.316 µM
[4] = second compound 0.0316 µM, first compound 1 µM
[5] = second compound 0.0316 µM, first compound 3.16 µM
[6] = second compound 0.0316 µM, first compound 10 µM
[7] = second compound 0.1 µM, first compound 0.0316 µM
[8] = second compound 0.1 µM, first compound 0.1 µM
[9] = second compound 0.1 µM, first compound 0.316 µM
[10] = second compound 0.1 µM, first compound 1 µM
[11] = second compound 0.1 µM, first compound 3.16 µM
[12] = second compound 0.1 µM, first compound 10 µM
[13] = second compound 0.316 µM, first compound 0.0316 µM
[14] = second compound 0.316 µM, first compound 0.1 µM
[15] = second compound 0.316 µM, first compound 0.316 µM
[16] = second compound 0.316 µM, first compound 1 µM
[17] = second compound 0.316 µM, first compound 3.16 µM
[18] = second compound 0.316 µM, first compound 10 µM
[19] = second compound 1 µM, first compound 0.0316 µM
[20] = second compound 1 µM, first compound 0.1 µM
[21] = second compound 1 µM, first compound 0.316 µM
[22] = second compound 1 µM, first compound 1 µM
[23] = second compound 1 µM, first compound 3.16 µM
[24] = second compound 1 µM, first compound 10 µM
[25] = second compound 3.16 µM, first compound 0.0316 µM
[26] = second compound 3.16 µM, first compound 0.1 µM
[27] = second compound 3.16 µM, first compound 0.316 µM
[28] = second compound 3.16 µM, first compound 1 µM
[29] = second compound 3.16 µM, first compound 3.16 µM
[30] = second compound 3.16 µM, first compound 10 µM
[31] = second compound 10 µM, first compound 0.0316 µM
[32] = second compound 10 µM, first compound 0.1 µM
[33] = second compound 10 µM, first compound 0.316 µM
[34] = second compound 10 µM, first compound 1 µM
[35] = second compound 10 µM, first compound 3.16 µM
[36] = second compound 10 µM, first compound 10 µM
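Also: spheroids exposed to compounds for seven days.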
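For viability, T/C in this document: 100% = DMSO vehicle control viability.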

CC1COCCN1c1cc(C2(S(C)(=N)=O)CC2)nc(-c2ccnc3[nH]ccc23)n1 (stereo not drawn) + COC1C(OC(N)=O)C(O)C(Oc2ccc3c(O)c(NC(=O)c4ccc(O)c(CC=C(C)C)c4)c(=O)oc3c2C)OC1(C)C
IC50 (second compound 0.0316 µM): > 10 µM
IC50 (second compound 0.1 µM): 5.46 µM
IC50 (second compound 0.316 µM): 6.61 µM
IC50 (second compound 1 µM): 7.63 µM
IC50 (second compound 3.16 µM): 6.86 µM
IC50 (second compound 10 µM): 9.91 µM
viability, T/C [1]: 108%
viability, T/C [2]: 89.1%
viability, T/C [3]: 110%
viability, T/C [4]: 76.9%
viability, T/C [5]: 74.9%
viability, T/C [6]: 56.7%
viability, T/C [7]: 92.4%
viability, T/C [8]: 104%
viability, T/C [9]: 88.5%
viability, T/C [10]: 72.1%
viability, T/C [11]: 61.9%
viability, T/C [12]: 39.6%
viability, T/C [13]: 103%
viability, T/C [14]: 82.1%
viability, T/C [15]: 83.6%
viability, T/C [16]: 81%
viability, T/C [17]: 80.4%
viability, T/C [18]: 33.9%
viability, T/C [19]: 115%
viability, T/C [20]: 90.2%
viability, T/C [21]: 91.5%
viability, T/C [22]: 81%
viability, T/C [23]: 79.5%
viability, T/C [24]: 39.9%
viability, T/C [25]: 99%
viability, T/C [26]: 93.3%
viability, T/C [27]: 85.3%
viability, T/C [28]: 107%
viability, T/C [29]: 59.6%
viability, T/C [30]: 45.3%
viability, T/C [31]: 104%
viability, T/C [32]: 119%
viability, T/C [33]: 79.8%
viability, T/C [34]: 92.3%
viability, T/C [35]: 66.1%
viability, T/C [36]: 49.7%

CCCS(=O)(=O)Nc1ccc(F)c(C(=O)c2c[nH]c3ncc(-c4ccc(Cl)cc4)cc23)c1F + COC1C(OC(N)=O)C(O)C(Oc2ccc3c(O)c(NC(=O)c4ccc(O)c(CC=C(C)C)c4)c(=O)oc3c2C)OC1(C)C
IC50 (second compound 0.0316 µM): 3.55 µM
IC50 (second compound 0.1 µM): 4.03 µM
IC50 (second compound 0.316 µM): 3.46 µM
IC50 (second compound 1 µM): 3.45 µM
IC50 (second compound 3.16 µM): 3.83 µM
IC50 (second compound 10 µM): 2.37 µM
viability, T/C [1]: 91.9%
viability, T/C [2]: 77.1%
viability, T/C [3]: 81.1%
viability, T/C [4]: 56.5%
viability, T/C [5]: 59.4%
viability, T/C [6]: 33.2%
viability, T/C [7]: 86.6%
viability, T/C [8]: 76.1%
viability, T/C [9]: 65.7%
viability, T/C [10]: 68.4%
viability, T/C [11]: 60%
viability, T/C [12]: 29.9%
viability, T/C [13]: 89.8%
viability, T/C [14]: 65.5%
viability, T/C [15]: 63.5%
viability, T/C [16]: 65.3%
viability, T/C [17]: 58.4%
viability, T/C [18]: 32.9%
viability, T/C [19]: 108%
viability, T/C [20]: 63.7%
viability, T/C [21]: 80.9%
viability, T/C [22]: 58.5%
viability, T/C [23]: 66.5%
viability, T/C [24]: 30.6%
viability, T/C [25]: 93.1%
viability, T/C [26]: 82%
viability, T/C [27]: 68.7%
viability, T/C [28]: 54.9%
viability, T/C [29]: 68.4%
viability, T/C [30]: 33.2%
viability, T/C [31]: 89.1%
viability, T/C [32]: 73.5%
viability, T/C [33]: 73.1%
viability, T/C [34]: 73.3%
viability, T/C [35]: 42.2%
viability, T/C [36]: 38%

COc1ccc([C@@H](O)c2cc(-c3ncnc4cc(N5CCOCC5)ccc34)c(F)cc2Cl)nn1 + COC1C(OC(N)=O)C(O)C(Oc2ccc3c(O)c(NC(=O)c4ccc(O)c(CC=C(C)C)c4)c(=O)oc3c2C)OC1(C)C
IC50 (second compound 0.0316 µM): > 10 µM
IC50 (second compound 0.1 µM): > 10 µM
IC50 (second compound 0.316 µM): > 10 µM
IC50 (second compound 1 µM): > 10 µM
IC50 (second compound 3.16 µM): > 10 µM
IC50 (second compound 10 µM): > 10 µM
viability, T/C [1]: 109%
viability, T/C [2]: 105%
viability, T/C [3]: 104%
viability, T/C [4]: 85.4%
viability, T/C [5]: 85.4%
viability, T/C [6]: 78.5%
viability, T/C [7]: 108%
viability, T/C [8]: 106%
viability, T/C [9]: 95.1%
viability, T/C [10]: 73.7%
viability, T/C [11]: 70.1%
viability, T/C [12]: 62.3%
viability, T/C [13]: 96.5%
viability, T/C [14]: 89.3%
viability, T/C [15]: 78.2%
viability, T/C [16]: 88.1%
viability, T/C [17]: 77.5%
viability, T/C [18]: 69.2%
viability, T/C [19]: 93.2%
viability, T/C [20]: 90.9%
viability, T/C [21]: 101%
viability, T/C [22]: 87.2%
viability, T/C [23]: 95%
viability, T/C [24]: 66.2%
viability, T/C [25]: 94%
viability, T/C [26]: 91.8%
viability, T/C [27]: 90.7%
viability, T/C [28]: 89.4%
viability, T/C [29]: 79.3%
viability, T/C [30]: 57.6%
viability, T/C [31]: 102%
viability, T/C [32]: 91.6%
viability, T/C [33]: 91.7%
viability, T/C [34]: 92.2%
viability, T/C [35]: 60.1%
viability, T/C [36]: 75.7%

Cn1ncnc1[C@H]1c2n[nH]c(=O)c3cc(F)cc(c23)N[C@@H]1c1ccc(F)cc1 + COC1C(OC(N)=O)C(O)C(Oc2ccc3c(O)c(NC(=O)c4ccc(O)c(CC=C(C)C)c4)c(=O)oc3c2C)OC1(C)C
IC50 (second compound 0.0316 µM): > 0.1 µM
IC50 (second compound 0.1 µM): > 0.1 µM
IC50 (second compound 0.316 µM): > 0.1 µM
IC50 (second compound 1 µM): > 0.1 µM
IC50 (second compound 3.16 µM): > 0.1 µM
IC50 (second compound 10 µM): > 0.1 µM
viability, T/C (second compound 0.0316 µM, first compound 0.000316 µM): 126%
viability, T/C (second compound 0.0316 µM, first compound 0.001 µM): 108%
viability, T/C (second compound 0.0316 µM, first compound 0.00316 µM): 101%
viability, T/C (second compound 0.0316 µM, first compound 0.01 µM): 98.1%
viability, T/C [1]: 103%
viability, T/C [2]: 97.4%
viability, T/C (second compound 0.1 µM, first compound 0.000316 µM): 106%
viability, T/C (second compound 0.1 µM, first compound 0.001 µM): 122%
viability, T/C (second compound 0.1 µM, first compound 0.00316 µM): 92%
viability, T/C (second compound 0.1 µM, first compound 0.01 µM): 100%
viability, T/C [7]: 118%
viability, T/C [8]: 103%
viability, T/C (second compound 0.316 µM, first compound 0.000316 µM): 97.5%
viability, T/C (second compound 0.316 µM, first compound 0.001 µM): 81.7%
viability, T/C (second compound 0.316 µM, first compound 0.00316 µM): 85.4%
viability, T/C (second compound 0.316 µM, first compound 0.01 µM): 111%
viability, T/C [13]: 102%
viability, T/C [14]: 132%
viability, T/C (second compound 1 µM, first compound 0.000316 µM): 105%
viability, T/C (second compound 1 µM, first compound 0.001 µM): 111%
viability, T/C (second compound 1 µM, first compound 0.00316 µM): 111%
viability, T/C (second compound 1 µM, first compound 0.01 µM): 90.5%
viability, T/C [19]: 118%
viability, T/C [20]: 98.1%
viability, T/C (second compound 3.16 µM, first compound 0.000316 µM): 88.2%
viability, T/C (second compound 3.16 µM, first compound 0.001 µM): 106%
viability, T/C (second compound 3.16 µM, first compound 0.00316 µM): 92.1%
viability, T/C (second compound 3.16 µM, first compound 0.01 µM): 99.5%
viability, T/C [25]: 107%
viability, T/C [26]: 126%
viability, T/C (second compound 10 µM, first compound 0.000316 µM): 112%
viability, T/C (second compound 10 µM, first compound 0.001 µM): 98.5%
viability, T/C (second compound 10 µM, first compound 0.00316 µM): 104%
viability, T/C (second compound 10 µM, first compound 0.01 µM): 102%
viability, T/C [31]: 105%
viability, T/C [32]: 105%
